According to patent US9708336B2, “Metallo-beta-lactamase inhibitors” (priority 2014, dated 2017):
Read-outs that look alike come from different tables or passages of the source.

Experiments:
IMP-1 = IMP-1 (Serratia marcescens, UniProt P52699); assay: biochemical; type: biochemical; conditions: read-out: IMP-1 IC50
[1] = test system: Escherichia coli expressing NDM-1 (CLB30005); assay: Antibiotic potentiation activity: synergistic concentration (MITC95) with imipenem, OD600 growth; type: cell-based; conditions: for Escherichia coli expressing NDM-1 (CLB 30005) MITC95: concentration giving 95% inhibition of bacterial growth
In short: (§1)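 CLB30005 was precultured on Mueller Hinton agar with 8 ug/ml imipenem, the other strains on trypticase soy agar with 5% sheep blood, overnight at 35 °C. Saline suspensions diluted 1:100 in 1.1× CAMHB received compound and 4 μg/ml imipenem, then 22–24 h at 35 °C before absorbance reading.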

[2] = test system: Klebsiella pneumoniae expressing VIM-1 (IHMA599644); assay: as above; type: cell-based; conditions: for Klebsiella pneumoniae expressing VIM-1 (IHMA 599644) MITC95: concentration giving 95% inhibition of bacterial growth
In short: as §1

[3] = test system: Serratia marcescens expressing IMP-1 (CL5741); assay: as above; type: cell-based; conditions: for Serratia marcescens expressing IMP-1 (CL5741) MITC95: concentration giving 95% inhibition of bacterial growth
In short: as §1

NDM-1 = NDM-1 (Klebsiella pneumoniae, UniProt C7C422); assay: biochemical; type: biochemical; conditions: read-out: NDM-1 IC50
Chain of NDM-1 (C7C422 whole entry, looked up, species assumed): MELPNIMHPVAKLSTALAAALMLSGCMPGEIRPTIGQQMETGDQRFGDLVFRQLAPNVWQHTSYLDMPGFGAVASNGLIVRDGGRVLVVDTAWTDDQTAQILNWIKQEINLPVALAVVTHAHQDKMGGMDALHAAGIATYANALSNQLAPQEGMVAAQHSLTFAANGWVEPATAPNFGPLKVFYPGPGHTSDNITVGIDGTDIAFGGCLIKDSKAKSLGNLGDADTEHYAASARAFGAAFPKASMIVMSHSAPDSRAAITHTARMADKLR

VIM-1 = VIM-1 (Pseudomonas aeruginosa (strain ATCC 15692 / DSM 22644 / CIP 104116 / JCM 14847 / LMG 12228 / 1C / PRS 101 / PAO1), UniProt A0A0F7KYQ8); assay: Enzyme activity: determination of IC50, fluorescence assay with CCF2-FA substrate (VIM-1); type: biochemical
[4] = test system: Escherichia coli expressing NDM-1 (CLB30016); assay: Antibiotic potentiation activity: synergistic concentration (MITC95) with imipenem, OD600 growth; type: cell-based; conditions: for Escherichia coli expressing NDM-1 (CLB 30016) MITC95: concentration giving 95% inhibition of bacterial growth
In short: as §1

[5] = fluorescence assay with CCF2-FA substrate
[6] = Klebsiella pneumoniae expressing VIM-1 (IHMA599644), 95% growth inhibition
[7] = Serratia marcescens expressing IMP-1 (CL5741), 95% growth inhibition
[8] = NDM-1 enzyme, CCF2-FA fluorescence assay
[9] = IMP-1 enzyme, CCF2-FA substrate
[10] = VIM-1 IC50, VIM-1 enzyme, CCF2-FA substrate
[11] = Klebsiella pneumoniae IHMA599644 (VIM-1), 95% growth inhibition
[12] = Serratia marcescens CL5741 (IMP-1), 95% growth inhibition
[13] = (CLB30016, NDM-1), 95% growth inhibition
[14] = NDM-1 enzyme, CCF2-FA substrate
[15] = VIM-1 enzyme, CCF2-FA substrate, read-out: VIM-1 IC50
[16] = VIM-1 IC50, fluorescence assay with CCF2-FA substrate
[17] = fluorescence assay with CCF2-FA substrate, read-out: VIM-1 IC50

Chain of IMP-1 (P52699 whole entry, looked up): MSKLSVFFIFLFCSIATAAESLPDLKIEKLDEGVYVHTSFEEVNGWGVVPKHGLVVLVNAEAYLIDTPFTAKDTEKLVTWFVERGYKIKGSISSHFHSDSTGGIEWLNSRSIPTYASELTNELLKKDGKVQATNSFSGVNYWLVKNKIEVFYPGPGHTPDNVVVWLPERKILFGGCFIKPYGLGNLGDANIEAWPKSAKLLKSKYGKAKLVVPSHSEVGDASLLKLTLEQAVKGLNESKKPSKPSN

Row | SMILES | IC50 (IMP-1; [5]) | Escherichia coli expressing NDM-1 (CLB 30005) MITC95 [1] | Klebsiella pneumoniae expressing VIM-1 (IHMA 599644) MITC95 [2] | Serratia marcescens expressing IMP-1 (CL5741) MITC95 [3] | IC50 (NDM-1; [5]) | further results
1 | CN(C)c1ccc(-c2ccnc(S(N)(=O)=O)c2-c2nn[nH]n2)cn1 [Example 211, 6-(dimethylamino)-3′-(2H-tetrazol-5-yl)-[3,4′-bipyridine]-2′-sulfonamide] | 537 nM | 0.3906 µM | 200 µM | 31.25 µM | 45.6 nM | –
2 | CN(C(=O)c1ccc(-c2cccc(S(N)(=O)=O)c2-c2nn[nH]n2)cc1)C1CCOCC1 [Example 77, N-methyl-3′-sulfamoyl-N-(tetrahydro-2H-pyran-4-yl)-2′-(2H-tetrazol-5-yl)biphenyl-4-carboxamide] | 53.8 nM | 9.375 µM | >200 µM | 28.13 µM | 12 nM | –
3 | NS(=O)(=O)c1nccc(-c2cccnc2)c1-c1nnn[nH]1 [Example 193, 3′-(1H-tetrazol-5-yl)-[3,4′-bipyridine]-2′-sulfonamide] | 2660 nM | 0.7813 µM | 37.5 µM | 150 µM | 374 nM | –
4 | CCOC(=O)CCn1cc(-c2cccc(S(N)(=O)=O)c2-c2nn[nH]n2)cn1 [Example 110, ethyl 3-{4-[3-sulfamoyl-2-(2H-tetrazol-5-yl)phenyl]-1H-pyrazol-1-yl}propanoate] | 445 nM | 9.375 µM | >200 µM | 28.13 µM | 51.9 nM | –
5 | COC(=O)c1ccc(-c2nn[nH]n2)c(S(N)(=O)=O)c1 [Example 255, Methyl 3-sulfamoyl-4-(2H-tetrazol-5-yl)benzoate] | – | – | – | – | – | Escherichia coli MITC95 ([1]; Escherichia coli expressing NDM-1 (CLB30005), 95% growth inhibition): 25 µM; Klebsiella pneumoniae MITC95 [2, 6]: >200 µM; Serratia marcescens MITC95 [3, 7]: >200 µM; IC50 (NDM-1; [8]): 699 nM
6 | Cn1cncc1-c1cccc(S(N)(=O)=O)c1-c1nn[nH]n1 [Example 43, 3-(1-methyl-1H-imidazol-5-yl)-2-(2H-tetrazol-5-yl)benzenesulfonamide] | 2090 nM | 1.172 µM | >200 µM | 75 µM | 310 nM | –
7 | NS(=O)(=O)c1cccc(-c2csc(CN3CCOCC3)c2)c1-c1nn[nH]n1 [Example 103, 3-[5-(morpholin-4-ylmethyl)thiophen-3-yl]-2-(2H-tetrazol-5-yl)benzenesulfonamide] | 311 nM | 9.375 µM | >200 µM | 15.63 µM | 49.4 nM | –
8 | NS(=O)(=O)c1cccc(-c2ccc(OCCN3CCCCC3)cc2)c1-c1nn[nH]n1 [Example 89, 4′-(2-piperidin-1-ylethoxy)-2-(2H-tetrazol-5-yl)biphen-3-sulfonamide] | 319 nM | 4.688 µM | >200 µM | 12.5 µM | 54.7 nM | –
9 | NS(=O)(=O)c1cccc(-c2ncccn2)c1-c1nn[nH]n1 [Example 39, 3-pyrimidin-2-yl-2-(2H-tetrazol-5-yl)benzenesulfonamide] | 2570 nM | 1.563 µM | >200 µM | 50 µM | 346 nM | –
10 | NS(=O)(=O)c1cccc(-c2ccnc(CO)c2)c1-c1nn[nH]n1 [Example 92, 3-[2-(hydroxymethyl)pyridin-4-yl]-2-(2H-tetrazol-5-yl)benzenesulfonamide] | – | 0.3906 µM | – | 50 µM | – | –
11 | NS(=O)(=O)c1c(CC[C@H]2CC[C@@H](N)CC2)ccc(-c2ccc(C3CNC3)cc2)c1-c1nnn[nH]1 [Example 600, 4-(2-((1s,4r)-4-aminocyclohexyl)ethyl)-4′-(azetidin-3-yl)-2-(1H-tetrazol-5-yl)-[1,1′-biphenyl]-3-sulfonamide] | – | – | – | – | – | IC50 (IMP-1; [9]): 43.8 nM; IC50 (VIM-1; [10]): 0.861 nM; Klebsiella pneumoniae MITC95 [2, 11]: 3.125 µM; Serratia marcescens MITC95 [3, 12]: 6.25 µM; Escherichia coli MITC95 [4, 13]: 1.563 µM; IC50 (NDM-1; [14]): 2.56 nM
12 | NC[C@H]1CC[C@@H](c2ccc(CCC3CCNCC3)c(S(N)(=O)=O)c2-c2nnn[nH]2)CC1 [Example 592, 3-((1s,4s)-4-(aminomethyl)cyclohexyl)-6-(2-(piperidin-4-yl)ethyl)-2-(1H-tetrazol-5-yl)benzenesulfonamide] | – | – | – | – | – | IC50 (IMP-1; [9]): 84.1 nM; IC50 (VIM-1; [15]): 34.8 nM; Klebsiella pneumoniae MITC95 [2, 11]: 12.5 µM; Serratia marcescens MITC95 [3, 12]: 3.125 µM; Escherichia coli MITC95 [4, 13]: 1.563 µM; IC50 (NDM-1; [14]): 8.6 nM
13 | NS(=O)(=O)c1nccc(N2CCC(c3ccncc3)CC2)c1-c1nnn[nH]1 [Example 217, 4-(4-pyridin-4-ylpiperidin-1-yl)-3-(1H-tetrazol-5-yl)pyridine-2-sulfonamide] | 481 nM | – | 150 µM | 12.5 µM | 43 nM | IC50 (VIM-1; [16]): 49.3 nM; Escherichia coli expressing NDM-1 (CLB 30016) MITC95 [4]: 4.688 µM
14 | Cc1ccccc1Cc1cccc(S(N)(=O)=O)c1-c1nnn[nH]1 [Example 155, 3-(2-methylbenzyl)-2-(1H-tetrazol-5-yl)benzenesulfonamide] | 92.7 nM | – | 75 µM | 2.344 µM | 3 nM | IC50 (VIM-1; [17]): 16.2 nM; Escherichia coli expressing NDM-1 (CLB 30016) MITC95 [4]: 3.125 µM
15 | NS(=O)(=O)c1cccc(-c2cnc(NC3CC3)nc2)c1-c1nnn[nH]1 [Example 123, 3-(2-(cyclopropylamino)pyrimidin-5-yl)-2-(1H-tetrazol-5-yl)benzenesulfonamide] | 415 nM | – | >200 µM | 18.75 µM | 8.3 nM | IC50 (VIM-1; [17]): 309 nM; Escherichia coli expressing NDM-1 (CLB 30016) MITC95 [4]: 1.563 µM
16 | NC1CC(N2CC(c3ccc(-c4ccc(C(F)(F)F)c(S(N)(=O)=O)c4-c4nnn[nH]4)cc3)C2)C1 (stereo not shown) [Example 807, 4′-[1-(3-aminocyclobutyl)azetidin-3-yl]-2-(1H-tetrazol-5-yl)-4-(trifluuromethyl)biphenyl-3-sulfonamide] | 5.16 nM | – | – | – | 3.97 nM | IC50 (VIM-1; [17]): 19.9 nM; Klebsiella pneumoniae MITC95 ([2]; IHMA599644 (VIM-1), 95% inhibition of bacterial growth): 25 µM; Serratia marcescens MITC95 ([3]; CL5741 (IMP-1), 95% inhibition of bacterial growth): 6.25 µM; Escherichia coli MITC95 ([4]; CLB30016 (NDM-1), 95% inhibition of bacterial growth): 1.563 µM
17 | NS(=O)(=O)c1c(C(F)(F)F)ccc([C@H]2CC[C@H](NC3CCNC3)CC2)c1-c1nnn[nH]1 (stereo partly shown) [Example 696, 3-[4-(pyrrolidin-3-ylamino)cyclohexyl]-2-(1H-tetrazol-5-yl)-6-(trifluoromethyl)benzene sulfonamide] | – | – | – | – | – | IC50 (IMP-1; [9]): 5.26 nM; IC50 (VIM-1; [15]): 2.38 nM; Klebsiella pneumoniae MITC95 [2, 11]: 3.125 µM; Serratia marcescens MITC95 [3, 12]: 1.563 µM; Escherichia coli MITC95 [4, 13]: 0.3906 µM; IC50 (NDM-1; [14]): 1.09 nM
18 | NS(=O)(=O)c1cccc(C2CCCc3ncccc32)c1-c1nn[nH]n1 (stereo not shown) [Example 519, 3-(5,6,7,8-Tetrahydroquinolin-5-yl)-2-(2H-tetrazol-5-yl)benzenesulfonamide] | – | – | – | – | – | IC50 (IMP-1; [9]): 766 nM; IC50 (VIM-1; [10]): 24.6 nM; Klebsiella pneumoniae MITC95 [2, 11]: 37.5 µM; Serratia marcescens MITC95 [3, 12]: 100 µM; Escherichia coli MITC95 [4, 13]: 1.563 µM; IC50 (NDM-1; [14]): 3.78 nM
19 | NS(=O)(=O)c1cccc(-c2ccc(CN3CNC(=O)C3)cc2)c1-c1nnn[nH]1 [Example 342, 4′-[(4-oxoimidazolidin-1-yl)methyl]-2-(1H-tetrazol-5-yl)biphenyl-3-sulfonamide] | – | – | – | – | – | IC50 (IMP-1; IMP-1 enzyme, CCF2-FA fluorescence assay): 46 nM; IC50 (VIM-1; VIM-1 enzyme, CCF2-FA fluorescence assay, read-out: VIM-1 IC50): 80.4 nM; Klebsiella pneumoniae MITC95 [2, 6]: 25 µM; Serratia marcescens MITC95 [3, 7]: 0.7813 µM; Escherichia coli MITC95 ([4]; Escherichia coli expressing NDM-1 (CLB30016), 95% growth inhibition): 3.125 µM; IC50 (NDM-1; [8]): 4.64 nM
20 | NS(=O)(=O)c1cccc(-c2cccc(CO)c2)c1-c1nnn[nH]1 [Example 119, 3′-(hydroxymethyl)-2-(1H-tetrazol-5-yl)-[1,1′-biphenyl]-3-sulfonamide] | 548 nM | – | 50 µM | 18.75 µM | 16.2 nM | IC50 (VIM-1; [16]): 261 nM; Escherichia coli expressing NDM-1 (CLB 30016) MITC95 [4]: 1.563 µM
